Test results published in US20260234146A1, “Use of Hypoxia-Inducible Factor-Prolyl Hydroxylase Inhibitor (HIF-PHI) in Rare Anemia” (Kind Pharmaceutical, priority 2023, published 2026).

Experiments:
Townes SCD model mouse = assay: Effect on SCD anemia mice (RBC, Hb, HCT); assay type: in vivo
Protocol: Throughout the experimental stage, animals were housed in cages in an animal room with 24-hour continuous central air conditioning, temperature set at 20-26° C., relative air humidity set at 40-70%, and a 12-hour light/dark cycle. All animals had free access to food and sterilized drinking water. The animal strain was B6·Cg-Hbb^tm2(HBG1,HBB)Tow/Hbat^ml(HBA)Tow/ShmtJ mice, a Townes SCD model mouse where mouse endogenous hemoglobin is replaced by knocked-in human hemoglobin. Two weeks after birth, mice were ear-punched for identification, and the ear tissue was collected for PCR analysis to determine its genotype. Mice confirmed as B6·Cg-Hbb^tm2(HBG1,HBB)Tow/Hbat^ml(HBA)Tow/ShmtJ were grouped. […] Blood sampling was performed every other week. Mice showing symptoms of anemia were selected for dosing. Animals were randomly divided into groups, 6 animals per group: Vehicle control group (0.1 M meglumine aqueous solution; oral gavage; volume: 6.67 mL/kg), Comp-1 group (30 mpk; oral gavage; volume: 6.67 mL/kg), and EPO group (50 U/30 g body weight; SC injection; MyBioSource, cat. #: MBS650094, erythropoietin alpha). Dosing was administered three times a week (TIW) for 4 consecutive weeks. On days 14 and 28 of dosing, 70 μL of blood was collected from orbit. Collected blood samples were placed in heparin-anticoagulant tubes. 15 μL of the blood sample from the anticoagulant tube was aspirated and added to an Element HT5 Veterinary Hematology Analyzer. RBC, Hb, and HCT in the blood were measured according to the instrument's operating instructions. Data analysis was performed using GraphPad Prism 9.0. […]

MDS model mice = assay: Effect on MDS model mice (RBC, Hb, HCT); assay type: in vivo, C57 mice; conditions: 50 U/30 g
[1] = 30 mpk oral gavage TIW group, baseline, average of six mice
[2] = 30 mpk oral gavage TIW, end of the four-week experiment, average of five mice
[3] = 50 U/30 g SC TIW, After 2 weeks of dosing Week 2
[4] = 50 U/30 g SC TIW, After 4 weeks of dosing Week 4
[5] = 50 U/30 g group, Before dosing Week 0

Molecule | HCT (Townes SCD model mouse; [1]) | Hb (Townes SCD model mouse; [1]) | RBC (Townes SCD model mouse; [1]) | HCT (Townes SCD model mouse; [2]) | Hb (Townes SCD model mouse; [2]) | RBC (Townes SCD model mouse; [2]) | Mortality (Townes SCD model mouse; 30 mpk, oral gavage, TIW, after two weeks of dosing) | Improvement of RBC, Hb, or HCT values (MDS model mice) | Arithmetic mean of HCT hematocrit (Townes SCD model mouse; [3]) | Arithmetic mean of HGB hemoglobin content (Townes SCD model mouse; [3]) | Arithmetic mean of RBC red blood cell count (Townes SCD model mouse; [3]) | Arithmetic mean of HCT hematocrit (Townes SCD model mouse; [4]) | Arithmetic mean of HGB hemoglobin content (Townes SCD model mouse; [4]) | Arithmetic mean of RBC red blood cell count (Townes SCD model mouse; [4]) | Arithmetic mean of HCT hematocrit (Townes SCD model mouse; [5]) | Arithmetic mean of HGB hemoglobin content (Townes SCD model mouse; [5]) | Arithmetic mean of RBC red blood cell count (Townes SCD model mouse; [5]) | Therapeutic effect in the SCD mouse model (Townes SCD model mouse; 50 U/30 g, SC injection, TIW, 4 weeks)
O=C(O)CNC(=O)C1C(=O)N(C2CCCCC2)C(=O)N(C2CCCCC2)C1=O [Daprodustat, reference compound] | 31.8% | 9.1 g/dL | 6.14 M/μL | 35.9% | 10.9 g/dL | 7.54 M/μL | One mouse in the Daprodustat group including six mice in total died |  |  |  |  |  |  |  |  |  |  | 
EPO: EPO positive control; MyBioSource, cat. #: MBS650094, erythropoietin alpha |  |  |  |  |  |  |  | Neither Roxadustat nor EPO improved RBC, Hb, or HCT values | 25.02% | 7.52 g/dL | 5.80 M/μL | 23.25% | 6.87 g/dL | 5.43 M/μL | 27.00% | 8.37 g/dL | 6.25 M/μL | no therapeutic effect in the SCD mouse model
